Results taken from patent US20220226343A1, “3-AMINO-4-[4-[4 (DIMETHYLCARBAMOYL) PHENYL]-1,4-DIAZEPAN-1-YL]THIENO[2,3-B]PYRIDINE-2-CARBOXAMIDE FOR USE IN CANCER THERAPY AND FORMULATIONS COMPRISING THE SAME” (University of South Carolina, priority 2019, published 2022).

Tests used:
CDK8/19 = test: NFκB reporter assay in parental 293 reporter cells; type: cell-based; conditions: NFκB Activity Assay as described in Example 1; read-out: Inhibition Potency HEK293-NFkB-Luc Assay
From the text: We have used a cell-based assay to measure the inhibition of CDK8/19 activity by thienopyridine derivatives. This assay, based on the role of CDK8/19 in NFκB-driven transcription (Chen, 2017), measures the effects of CDK8/19 on the expression of firefly luciferase reporter from a NFκB-dependent promoter in 293 cells. Lentiviral vector pHAGE-NFKB-TA-LUC-UBC-dTomato-W (Addgene #49335) was introduced into 293 cells and a clonal cell line showing the strongest induction of luciferase expression upon TNFα treatment was established and used as the reporter cell line. As a control for CDK8/19 dependence of NFκB inhibition, we have also introduced the same reporter construct into 293 cells with CRISPR/CAS9 knockout of both CDK8 and CDK19.
FIG. 2C and Table 1 compares the IC50 values for different thienopyridines measured in the NFκB reporter assay in parental 293-derived reporter cell line to the cell-based activity values measured for the same compounds by Saito (2013) based on their effect on alkaline phosphatase (ALPase), an indicator of differentiation to osteoblasts in the mouse bone marrow stromal cell line ST2. The latter effects are expressed as EC200, a concentration that enhances ALPase activity to 200% of control.

CDC2L5 = target: T1, CDC2L5 (Homo sapiens, UniProt Q14004); test: KINOMEscan scanMAX; type: binding; conditions: CDC2L5, 2000 nM
T1 construct: purchased DiscoverX (KINOMEscan scanMAX service)
From the text: (§1) Nat. Biotechnol. 23, 329-336 (2005).
(§2) Percent Control (% Ctrl).
(§3) % Ctrl=100×(TS−CPOS)/(CNEG−CPOS) (eqn 1)

FLT3(ITD) = test: KINOMEscan scanMAX; type: binding; conditions: 2000 nM
From the text: as §1, §2, §3

FLT3(ITD, D835V) = test: KINOMEscan scanMAX; type: binding; conditions: 2000 nM
From the text: as §1, §2, §3

FLT3(ITD, F691L) = test: KINOMEscan scanMAX; type: binding; conditions: 2000 nM
From the text: as §1, §2, §3

PFCDPK1(P. falciparum) = target: T2, PFCDPK1(P. falciparum) (Plasmodium falciparum, UniProt P62344); test: KINOMEscan scanMAX; type: binding; conditions: 2000 nM
T2 construct: DNA label (qPCR read-out); purchased DiscoveRx (KINOMEscan scanMAX)
From the text: as §1, §2, §3

PFPK5(P. falciparum) = target: T3, PFPK5(P. falciparum) (Plasmodium falciparum, UniProt P61075); test: KINOMEscan scanMAX; type: binding; conditions: 2000 nM
T3 construct: purchased KINOMEscan (DiscoveRx) scanMAX panel
From the text: as §1, §2, §3

PKNB(M. tuberculosis) = target: T4, PKNB(M. tuberculosis) (Mycobacterium tuberculosis, UniProt P9WI81); test: KINOMEscan scanMAX; type: binding; conditions: 2000 nM
T4 construct: purchased DiscoveRx (KINOMEscan scanMAX panel)
From the text: as §1, §2, §3

PRP4 = target: T5, PRP4 (Homo sapiens, UniProt Q13523); test: KINOMEscan scanMAX; type: binding; conditions: PRP4, 2000 nM
T5 construct: DNA label (qPCR read-out); purchased DiscoverX (KINOMEscan)
From the text: as §1, §2, §3

in vivo = conditions: female, CD-1, mouse, serum, po, 30 mg/kg
[1] = Oral PK of 15u and 15u_D6, female CD-1 mice; conditions: 30 mg/kg, AUC within the first eight hours
[2] = test system: PSA expression in CRPC cell line C4-2; test: PSA expression in cell culture supernatant of C4-2 cells; type: cell-based; conditions: C4-2 culture supernatant, 4-day treatment, FBS-supplemented regular media
From the text: CDK8/19 inhibition decreases the expression of certain androgen-receptor (AR) inducible genes including PSA, the most common marker of prostate cancer, and the growth of castration-refractory prostate cancers (CRPC).

MYC-CAP-CR cells [3] = test: Short-term cell proliferation assay, MYC-CAP-CR; type: cell-based, murine; conditions: androgen-containing media
From the text: (§4) MYC-CaP-CR cells (Ellis L. et al., 2012. Prostate 72(6):587-591) were selected for castration resistance from genetically engineered MYC-CaP cells that express MYC from an AR-responsive promoter (Watson P A, et al., 2005. Cancer Res 65(24):11565-11571). Castration resistance in these cells is associated with the overexpression of full-length AR rather than an AR variant, such as AR-V7 in 22rv1 (Olson B M, et al., 2017. Cancer immunology research 5(12):1074-1085).

MYC-CAP-CR cells [4] = test: Long-term clonogenic assay, MYC-CaP-CR; type: cell-based, murine; conditions: 1 μM Senexin B, 1 μM 15u, 5 μM enzalutamide
From the text: as §4

[5] = test system: 4T1 murine TNBC lung metastasis; test: 4T1 breast cancer metastasis survival after primary tumor removal; type: in vivo, mouse; conditions: Senexin B medicated food (350 ppm) plus one oral dose 50 mg/kg
Method: 4T1 is a murine triple-negative breast cancer (TNBC) cell line, which is highly metastatic to the lungs. […] Parental and CDK8-knockdown 4T1 cells (n=10) were injected orthotopically in the mammary fat pad and the primary tumors were removed 17 days later. Following surgery, all the mice eventually died with lung metastases. […] However, the loss of CDK8 was associated with a strong increase in the survival of mice (FIG. 10C). […]

[6] = test system: CRPC cell line 22rv1 xenograft; conditions: Senexin B 133 mg/kg once a day or 66 mg/kg twice a day (FIG. 8D)
MYC-CaP-CR tumors = MYC-CaP-CR tumors subcutaneous in intact FVB male mice; type: in vivo, mouse
From the text: as §4

T2 sequence (P62344 whole entry): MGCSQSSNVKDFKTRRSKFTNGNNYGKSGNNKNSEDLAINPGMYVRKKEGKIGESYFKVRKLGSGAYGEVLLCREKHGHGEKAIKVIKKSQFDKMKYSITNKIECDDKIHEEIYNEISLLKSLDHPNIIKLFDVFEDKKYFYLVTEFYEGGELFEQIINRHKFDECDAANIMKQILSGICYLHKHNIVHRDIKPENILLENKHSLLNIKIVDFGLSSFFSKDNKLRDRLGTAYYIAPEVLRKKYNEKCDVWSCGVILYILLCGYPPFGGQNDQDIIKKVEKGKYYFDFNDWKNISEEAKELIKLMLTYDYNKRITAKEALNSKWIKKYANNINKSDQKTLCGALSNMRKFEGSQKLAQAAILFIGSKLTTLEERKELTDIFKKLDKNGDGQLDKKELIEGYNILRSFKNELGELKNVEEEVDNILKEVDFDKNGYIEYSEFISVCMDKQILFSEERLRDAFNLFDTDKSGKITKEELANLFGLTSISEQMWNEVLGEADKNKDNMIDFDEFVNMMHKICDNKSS
T4 sequence (P9WI81 whole entry): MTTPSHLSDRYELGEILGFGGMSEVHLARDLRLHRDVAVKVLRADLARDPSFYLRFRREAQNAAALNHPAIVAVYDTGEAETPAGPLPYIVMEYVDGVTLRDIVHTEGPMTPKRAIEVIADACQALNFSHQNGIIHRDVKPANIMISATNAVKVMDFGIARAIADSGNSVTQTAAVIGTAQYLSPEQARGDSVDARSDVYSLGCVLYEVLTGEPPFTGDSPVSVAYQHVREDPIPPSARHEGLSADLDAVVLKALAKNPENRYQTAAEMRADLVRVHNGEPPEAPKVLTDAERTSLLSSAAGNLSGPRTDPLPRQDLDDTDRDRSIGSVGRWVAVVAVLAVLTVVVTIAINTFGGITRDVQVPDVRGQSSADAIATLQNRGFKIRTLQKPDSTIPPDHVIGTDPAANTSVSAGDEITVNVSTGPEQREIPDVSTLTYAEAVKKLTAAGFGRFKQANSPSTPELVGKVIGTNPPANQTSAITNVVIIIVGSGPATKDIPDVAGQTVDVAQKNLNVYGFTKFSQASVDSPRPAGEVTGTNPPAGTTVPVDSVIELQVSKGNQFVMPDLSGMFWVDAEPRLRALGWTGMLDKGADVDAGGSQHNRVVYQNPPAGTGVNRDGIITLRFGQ
T5 sequence (Q13523 whole entry): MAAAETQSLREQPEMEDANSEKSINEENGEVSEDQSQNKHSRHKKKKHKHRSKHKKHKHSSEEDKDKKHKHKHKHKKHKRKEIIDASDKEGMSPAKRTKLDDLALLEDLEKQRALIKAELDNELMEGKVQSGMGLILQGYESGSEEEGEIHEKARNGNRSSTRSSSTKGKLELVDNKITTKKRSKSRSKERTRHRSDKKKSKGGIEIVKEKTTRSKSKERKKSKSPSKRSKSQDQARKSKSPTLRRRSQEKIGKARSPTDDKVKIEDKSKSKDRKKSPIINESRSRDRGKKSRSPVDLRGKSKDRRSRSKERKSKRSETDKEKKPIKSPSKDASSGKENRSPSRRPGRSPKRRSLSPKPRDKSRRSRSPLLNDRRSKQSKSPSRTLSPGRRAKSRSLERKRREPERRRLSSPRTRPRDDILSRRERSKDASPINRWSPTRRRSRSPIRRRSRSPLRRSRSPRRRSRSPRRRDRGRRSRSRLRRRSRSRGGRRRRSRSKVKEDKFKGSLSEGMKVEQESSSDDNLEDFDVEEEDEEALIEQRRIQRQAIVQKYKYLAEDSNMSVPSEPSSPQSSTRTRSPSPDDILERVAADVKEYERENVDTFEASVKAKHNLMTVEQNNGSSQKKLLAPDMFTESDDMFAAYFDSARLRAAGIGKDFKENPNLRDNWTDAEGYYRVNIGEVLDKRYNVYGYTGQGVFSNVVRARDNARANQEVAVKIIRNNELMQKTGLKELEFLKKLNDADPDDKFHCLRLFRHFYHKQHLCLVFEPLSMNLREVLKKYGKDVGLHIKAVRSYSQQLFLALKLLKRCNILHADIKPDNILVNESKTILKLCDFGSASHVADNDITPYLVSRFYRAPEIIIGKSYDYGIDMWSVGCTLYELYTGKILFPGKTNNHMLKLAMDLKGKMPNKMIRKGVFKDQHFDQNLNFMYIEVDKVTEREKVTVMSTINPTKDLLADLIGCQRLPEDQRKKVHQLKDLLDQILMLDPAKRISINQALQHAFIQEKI
T1 sequence (Q14004 whole entry): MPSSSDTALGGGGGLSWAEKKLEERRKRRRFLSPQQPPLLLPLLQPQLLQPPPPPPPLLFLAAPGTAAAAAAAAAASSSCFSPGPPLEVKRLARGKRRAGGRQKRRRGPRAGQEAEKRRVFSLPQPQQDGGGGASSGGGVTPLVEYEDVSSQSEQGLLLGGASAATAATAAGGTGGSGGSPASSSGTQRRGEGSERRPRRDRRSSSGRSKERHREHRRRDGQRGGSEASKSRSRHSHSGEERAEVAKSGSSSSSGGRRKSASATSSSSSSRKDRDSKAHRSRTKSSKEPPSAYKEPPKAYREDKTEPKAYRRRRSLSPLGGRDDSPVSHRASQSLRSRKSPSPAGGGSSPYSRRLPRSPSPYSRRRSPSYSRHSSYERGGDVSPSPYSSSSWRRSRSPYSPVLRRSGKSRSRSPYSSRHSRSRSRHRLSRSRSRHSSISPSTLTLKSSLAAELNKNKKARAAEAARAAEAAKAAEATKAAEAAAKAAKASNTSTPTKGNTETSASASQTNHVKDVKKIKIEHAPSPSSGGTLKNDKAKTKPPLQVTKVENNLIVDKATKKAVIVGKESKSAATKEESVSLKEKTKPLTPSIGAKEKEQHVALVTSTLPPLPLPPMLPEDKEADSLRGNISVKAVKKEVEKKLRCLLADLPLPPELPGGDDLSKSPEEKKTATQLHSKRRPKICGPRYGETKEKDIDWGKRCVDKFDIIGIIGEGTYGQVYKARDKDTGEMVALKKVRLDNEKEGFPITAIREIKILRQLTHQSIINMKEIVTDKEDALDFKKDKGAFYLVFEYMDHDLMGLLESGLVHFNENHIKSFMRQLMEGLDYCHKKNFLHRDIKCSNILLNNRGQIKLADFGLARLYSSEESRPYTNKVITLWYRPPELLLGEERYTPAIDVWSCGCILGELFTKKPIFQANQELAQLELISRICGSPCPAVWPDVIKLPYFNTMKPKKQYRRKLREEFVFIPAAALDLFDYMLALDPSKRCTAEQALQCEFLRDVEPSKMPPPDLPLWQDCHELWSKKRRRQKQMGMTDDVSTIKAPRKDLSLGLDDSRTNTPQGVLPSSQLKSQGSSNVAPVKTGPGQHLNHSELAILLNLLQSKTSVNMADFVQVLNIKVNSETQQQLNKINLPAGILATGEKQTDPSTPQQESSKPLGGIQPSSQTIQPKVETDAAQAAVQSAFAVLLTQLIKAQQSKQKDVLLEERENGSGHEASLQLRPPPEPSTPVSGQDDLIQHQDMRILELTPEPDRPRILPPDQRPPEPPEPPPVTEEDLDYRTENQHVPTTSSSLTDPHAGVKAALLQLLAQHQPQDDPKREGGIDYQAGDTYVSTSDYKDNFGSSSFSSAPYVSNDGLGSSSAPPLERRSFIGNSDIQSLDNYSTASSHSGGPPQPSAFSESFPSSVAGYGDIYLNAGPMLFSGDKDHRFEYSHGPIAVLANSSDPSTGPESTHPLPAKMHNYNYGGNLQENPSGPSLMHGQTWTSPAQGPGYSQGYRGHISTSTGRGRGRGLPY
T3 sequence (P61075 whole entry): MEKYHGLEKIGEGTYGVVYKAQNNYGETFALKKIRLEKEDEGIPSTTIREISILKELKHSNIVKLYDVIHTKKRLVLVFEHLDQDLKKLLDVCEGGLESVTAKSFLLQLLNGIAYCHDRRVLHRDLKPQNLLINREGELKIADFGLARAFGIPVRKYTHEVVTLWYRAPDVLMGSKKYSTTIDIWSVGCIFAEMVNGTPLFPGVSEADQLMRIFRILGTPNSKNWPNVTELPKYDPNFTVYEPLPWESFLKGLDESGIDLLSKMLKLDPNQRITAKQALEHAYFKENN

Compound	IC50 (CDK8/19)	% Ctrl (CDC2L5)	% Ctrl (FLT3(ITD))	% Ctrl (FLT3(ITD, D835V))	% Ctrl (FLT3(ITD, F691L))	% Ctrl (PFCDPK1(P. falciparum))	% Ctrl (PFPK5(P. falciparum))	% Ctrl (PKNB(M. tuberculosis))	% Ctrl (PRP4)	AUC(0-t) (in vivo)	PK of the D6 derivative compared with 15u [1]	IC50 [2]	MYC-CAP-CR cell growth (MYC-CAP-CR cells [3])	MYC-CaP-CR colony formation (MYC-CAP-CR cells [4])	survival after removal of the primary 4T1 tumor [5]	22rv1 growth in castrated mice [6]	MYC-CaP-CR tumor volume and weight (MYC-CaP-CR tumors)
[2H]C([2H])([2H])N(C(=O)c1ccc(N2CCCN(c3ccnc4sc(C(N)=O)c(N)c34)CC2)cc1)C([2H])([2H])[2H] [Compound 15u_D6, 3-amino-4-(4-(4-(bis(methyl-d3)carbamoyl)phenyl)-1,4-diazepan-1-yl)thieno[2,3-b]pyridine-2-carboxamide]	0.0077 µM	80 % Ctrl	72 % Ctrl	34 % Ctrl	75 % Ctrl	61 % Ctrl	67 % Ctrl	90 % Ctrl	88 % Ctrl	7400 ng·h/mL	slightly improved the PK						
CN1CCN(C(=O)c2ccc3cc(CCNc4ncnc5ccc(C#N)cc45)ccc3c2)CC1 [Senexin B, reference compound]												0.255 µM	little effect	decreased MYC-CaP-CR colony formation	statistically significant but moderate increase in survival	significantly inhibited 22rv1 growth	
CNC(=O)c1ccc(N2C(=S)N(c3ccc(C#N)c(C(F)(F)F)c3)C(=O)C2(C)C)cc1F [enzalutamide]													paradoxically stimulated the growth	decreased MYC-CaP-CR colony formation			modest effect
